# In BindingDB's records for PubMed 10565848 (Washington State University, 1999):
# “And” between values parts separate entries of the source, which are not always exact repeats. Identical values can stand only once. Where a SMILES comes first, the peptide text is derived from it. [ ]: non-standard residue; d: D form. GABA = NCCCC(=O)O
# Target: Angiotensin-converting enzyme 2 (Bos taurus, UniProt Q58DD0)
# Sequence (Q58DD0 whole entry): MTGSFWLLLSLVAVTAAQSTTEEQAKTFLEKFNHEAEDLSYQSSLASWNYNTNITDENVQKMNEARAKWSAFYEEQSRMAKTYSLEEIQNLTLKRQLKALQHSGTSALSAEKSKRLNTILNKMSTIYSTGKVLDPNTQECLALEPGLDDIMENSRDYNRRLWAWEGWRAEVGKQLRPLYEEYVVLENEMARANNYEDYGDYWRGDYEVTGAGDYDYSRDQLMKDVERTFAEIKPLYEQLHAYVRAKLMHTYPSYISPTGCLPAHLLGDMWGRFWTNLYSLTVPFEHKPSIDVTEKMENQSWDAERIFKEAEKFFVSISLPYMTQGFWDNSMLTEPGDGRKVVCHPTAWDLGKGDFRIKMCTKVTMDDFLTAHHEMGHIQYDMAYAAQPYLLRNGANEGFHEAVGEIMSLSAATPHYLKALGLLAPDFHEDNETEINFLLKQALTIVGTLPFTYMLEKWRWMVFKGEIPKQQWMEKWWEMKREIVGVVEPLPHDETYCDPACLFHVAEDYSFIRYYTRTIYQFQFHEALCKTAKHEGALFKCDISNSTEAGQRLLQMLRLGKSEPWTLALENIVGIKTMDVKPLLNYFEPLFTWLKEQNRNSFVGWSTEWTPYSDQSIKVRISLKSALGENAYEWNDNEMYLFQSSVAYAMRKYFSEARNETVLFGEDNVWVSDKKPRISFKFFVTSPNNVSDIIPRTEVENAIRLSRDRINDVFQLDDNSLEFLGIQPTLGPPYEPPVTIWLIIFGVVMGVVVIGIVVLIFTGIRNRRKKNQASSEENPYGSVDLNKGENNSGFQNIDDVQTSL
row,Compound,Ki
1,"CCC(C)[C@H](NC(=O)[C@@H]1CCCN1C(=O)[C@H](Cc1cnc[nH]1)NC(=O)[C@@H](NC(=O)[C@H](Cc1ccc(O)cc1)NC(=O)[C@@H](NC(=O)[C@H](CCCN=C(N)N)NC(=O)CNC)C(C)C)[C@@H](C)CC)C(=O)O (stereo partly specified) [Ang II Ile8, Sar1]",1000 nM
2,CC[C@H](C)[C@H](NC(=O)[C@H](Cc1ccc(O)cc1)NC(=O)[C@@H](N)C(C)C)C(=O)N[C@@H](Cc1c[nH]cn1)C(=O)N1CCC[C@H]1C(=O)N[C@@H](Cc1ccccc1)C(=O)N[C@@H](Cc1c[nH]cn1)C(=O)N[C@@H](CC(C)C)C(=O)O [Ang(3-10)] (H-VYIHPFHL-OH),18.8 nM
3,CC[C@H](C)[C@H](NC(=O)[C@H](Cc1ccc(O)cc1)NC(=O)[C@H](N)C(C)C)C(=O)N[C@@H](Cc1cnc[nH]1)C(=O)N1CCC[C@H]1C(=O)N[C@@H](Cc1ccccc1)C(=O)O [Ang IV D-Val1],1000 nM
4,CC[C@H](C)[C@H](NC(=O)[C@H](Cc1ccc(O)cc1)NC(=O)[C@@H](N)C(C)C)C(=O)N[C@@H](Cc1cnc[nH]1)C(=O)N1CCC[C@H]1C(=O)O [Ang(3-7)] (H-VYIHP-OH),10.5 nM
5,CC[C@H](C)[C@H](NC(=O)[C@H](Cc1ccc(O)cc1)NC(=O)[C@@H](NC(=O)[C@@H](N)CCCN=C(N)N)C(C)C)C(=O)N[C@@H](Cc1c[nH]cn1)C(=O)N1CCC[C@H]1C(=O)N[C@@H](Cc1ccccc1)C(=O)O [CAS_12687-51-3],63.2 nM and 36.8 nM
6,CC[C@H](C)[C@H](NC(=O)[C@H](Cc1ccc(O)cc1)NC(=O)CCCN)C(=O)N[C@@H](Cc1cnc[nH]1)C(=O)N1CCC[C@H]1C(=O)N[C@@H](Cc1ccccc1)C(=O)O [Ang IV Nor1] (H-[GABA]YIHPF-OH),8.49 nM and 3.25 nM
7,CC(C)[C@H](N)C(=O)N[C@@H](Cc1ccc(O)cc1)C(=O)O [Ang(3-4)] (H-Val-Tyr-OH),1000 nM
8,CC[C@H](C)[C@H](NC(=O)[C@H](Cc1ccc(O)cc1)NC(=O)[C@@H](N)C(C)C)C(=O)N[C@@H](Cc1cnc[nH]1)C(=O)O [Ang(3-6)] (H-VYIH-OH),14.4 nM
9,CCCC[C@H](N)C(=O)N[C@H](Cc1ccccc1)C(=O)NCCCCCC(N)=O [NleYI-6-hexamide],13.7 nM
10,CC[C@H](C)[C@H](NC(=O)[C@H](Cc1ccc(O)cc1)NC(=O)[C@@H](NC(=O)[C@H](CCCNC(=N)N)NC(=O)[C@@H](N)CC(=O)O)C(C)C)C(=O)N[C@@H](Cc1c[nH]cn1)C(=O)N1CCC[C@H]1C(=O)O [Ang(1-7)],1000 nM
11,CC[C@H](C)[C@H](NC(=O)[C@H](Cc1ccc(O)cc1)NC(=O)[C@@H](NC(=O)[C@H](CCCNC(=N)N)NC(=O)[C@@H](N)CC(=O)O)C(C)C)C(=O)N[C@@H](Cc1cnc[nH]1)C(=O)N[C@H](C)C(=O)O [Ang(1-7) D-Ala7] (H-DRVYIH[dA]-OH),1000 nM
12,CC[C@H](C)[C@H](NC(=O)[C@H](Cc1ccc(O)cc1)NC(=O)[C@@H](N)C(C)C)C(=O)N[C@@H](Cc1cnc[nH]1)C(=O)N1CCC[C@H]1C(=O)N[C@@H](Cc1ccccc1)C(=O)N[C@@H](Cc1cnc[nH]1)C(=O)N[C@@H](CC(C)C)C(=O)N[C@H](C(=O)O)C(C)C [Ang(3-11)] (H-VYIHPFHLV-OH),117 nM
13,CC[C@H](C)[C@H](NC(=O)[C@H](Cc1ccc(O)cc1)NC(=O)[C@@H](N)C(C)C)C(=O)N[C@@H](Cc1cnc[nH]1)C(=O)N1CCC[C@H]1C(=O)N[C@@H](Cc1ccccc1)C(=O)O,5.54 nM and 3.58 nM
14,"CC[C@H](C)[C@H](NC(=O)[C@H](Cc1ccc(O)cc1)NC(=O)[C@@H](NC(=O)[C@H](CCCN=C(N)N)NC(=O)CNC)C(C)C)C(=O)N[C@@H](Cc1cnc[nH]1)C(=O)N1CCC[C@H]1C(=O)N[C@H](C(=O)O)C(C)O (stereo partly specified) [Ang II Thr8, Sar1]",1000 nM
15,Cc1cc(Cn2cnc3c2C[C@@H](C(=O)O)N(C(=O)C(c2ccccc2)c2ccccc2)C3)ccc1N,> 10000 nM
16,CC[C@H](C)[C@H](NC(=O)[C@H](Cc1ccc(O)cc1)NC(=O)[C@@H](NC(=O)[C@H](CCCNC(=N)N)NC(=O)[C@@H](N)CC(=O)O)C(C)C)C(=O)N[C@@H](Cc1cnc[nH]1)C(=O)N1CCC[C@H]1C(=O)N[C@@H](Cc1ccccc1)C(=O)O [NSC_439662],411 nM and 581 nM
17,CC[C@H](C)[C@H](NC(=O)[C@H](Cc1ccc(O)cc1)NC(=O)[C@@H](N)C(C)C)C(=O)O [Ang(3-5)] (H-Val-Tyr-Ile-OH),9.91 nM
18,CCCCc1nc(Cl)c(CO)n1Cc1ccc(-c2ccccc2-c2nn[nH]n2)cc1 [NSC_3961],> 10000 nM
19,CC[C@H](C)[C@H](NC(=O)[C@@H](N)Cc1ccc(O)cc1)C(=O)N[C@@H](Cc1cnc[nH]1)C(=O)N1CCC[C@H]1C(=O)N[C@@H](Cc1ccccc1)C(=O)O [Ang(4-8)] (H-YIHPF-OH),1000 nM
20,CC[C@H](C)[C@H](NC(=O)[C@H](Cc1ccc(O)cc1)NC(=O)[C@@H](N)C(C)C)C(=O)N[C@@H](Cc1c[nH]cn1)C(=O)N1CCC[C@H]1C(=O)N[C@@H](Cc1ccccc1)C(=O)N[C@@H](Cc1c[nH]cn1)C(=O)O [Ang(3-9)] (H-VYIHPFH-OH),7.17 nM
21,CC[C@H](C)[C@H](NC(=O)[C@H](Cc1ccc(O)cc1)NC(=O)[C@@H](NC(=O)[C@@H](N)CCCN=C(N)N)C(C)C)C(=O)N[C@@H](Cc1cnc[nH]1)C(=O)N1CCC[C@H]1C(=O)O [Ang(2-7)],33.5 nM
